“Also recorded” adds a separate entry of the source.

The record followed here is US11207427B2, “System and method for diagnosis of astrocytic brain tumor” (Dignity Health, priority 2012, dated 2021).

In test [1] the test system is GFAP-positive astrocytoma cells (U251). Briefly: Fixable SR101 co-labeling with GFAP in astrocytoma xenograft acute slices, confocal stereology. Format: cell-based, human astrocytoma cells implanted in nude rats. Conditions: for cells positive for fixable SR101 in astrocytoma tumor regions: tumor core, acute slices, GFAP and DAPI counterstain. As to the method:
(§1) Xenograft acute slices were incubated with the fixable version of SR101 (Texas Red Hydrazide; Sigma), washed at room temperature, and fixed with 4% paraformaldehyde for 12 hours at 4 degrees C. Slices were then rinsed in phosphate buffered saline, permeabilized with 0.3% triton, and blocked with CAS block (Invitrogen) (reference Pierre's paper). GBM xenograft slices were incubated 12-hours in anti-GFAP primary antibody (Millipore; 1:500), and Lymphoma sections were incubated 12-hours in anti-CD20 primary antibody (Millipore; 1:250). Sections were then rinsed and incubated with AlexaFluor488 secondary antibody (Invitrogen), followed by nuclear counterstaining with Dapi (Invitrogen). Fluorescently labeled sections were mounted on slides with vectashield (Vector labs) and No1.5 coverslips (VWR).
We randomly selected one rostral, midline, and caudal acute slice from each brain containing tumor incubated with fixable SR101. Glioma slices were immunofluorescently stained for GFAP, and slices containing lymphoma were stained for CD20. Ten randomly selected 150 um^2 tumor areas in each slice were optically sectioned to 50 um with a Zeiss 710LSM. The first […] of each image stack was discarded to minimize counts from cells damaged during sectioning. A maximum intensity projection image was generated from the remaining 45 um, and a stereology dissector was overlaid onto the image. Cells within the dissector, and those in contact with its left and bottom edges were counted for either GFAP or CD20 positivity, and for SR101 positivity. The percent overlap between immunostaining and SR101 positivity was calculated. […]
(§2) Next, we incubated acute slices from astrocytoma and CNS lymphoma animal models with fixable-SR101 and quantified the staining localization to GFAP for astrocytoma slices and CD20 for lymphoma slices. We adapted standard stereology approaches to quantify tumor cells labeled with fixable-SR101 and GFAP or CD20 antibodies. […]
A general note: In xenograft studies the graft and the host belong to different species.

In test [2] the test system is human brain tumor biopsies. Briefly: SR101 staining of fresh human brain tumor biopsies, confocal imaging. Format: cell-based. The procedure:
This research was approved by the institutional review board at St. Joseph's Hospital and Medical Center and all surgery was performed at the Barrow Neurological Institute. All subjects were consented pre-operatively for participation. Samples were obtained at the time of craniotomy from within the tumor mass at a location determined to be safe by the surgeon. The samples, averaging 4×2×2 mm in size, were transferred into ice-cold artificial cerebrospinal fluid (aCSF) containing 5 uM SR101. Samples were then transferred from the operating room to the laboratory, rinsed with aCSF (10 minutes), and immediately imaged.
(§3) SR101-labeled samples were placed in uncoated No. 1.5 glass-bottom dishes and positioned on the stage of a Zeiss 710 laser scanning confocal microscope equipped with a 40×/1.2 NA water emersion objection. We imaged SR101 by exciting the fluorophore with a 561 nm diode laser and collecting 595 nm-625 nm emission. The confocal aperature was set to Airy unit for all imaging. The laser and gain values were set to fill the dynamic range of the photomultiplier tube, and the frame size was set to sample at nyquist. Images were collected in 8 and 12 bit format absent of non-linear processing. An unstained adjacent tissue sample was imaged with each sample. In some cases, large field-of-view tiled and optically sectioned images were rapidly acquired using a Zeiss line-sweeping confocal microscope. Frame size for this system was fixed to 512×512 by a linear charged coupled device (CCD) array.
After we identified SR101's ability to rapidly label and differentiate astrocytoma cells and reactive astrocytes in animal models, we tested its utility as an intraoperative diagnostic agent. We determined the feasibility of intraoperatively identifying astrocytic brain tumors by confocal fluorescence imaging of fresh human brain tumor biopsies labeled with SR101. We screened samples from 60* patients with a total of 10 common human brain tumor types. The diagnosis as determined by traditional immunohistochemistry and paraffin-embedded hematoxylin and eosin histopathology was accepted as the final diagnosis for the purposes of comparison.
Tissue samples were transported in artificial cerebrospinal fluid and imaged within 30-40 minutes of resection. We first found SR101 filled the cytoplasm of astrocytes in non-tumor burdened brain (FIG. 4A). Next, we studied tissue sampled from tumor margins and found SR101 filled the cytoplasm of reactive astrocytes and tumor cells in these regions (FIG. 4B). […] At higher magnification we observed that SR101 delineated some cell nuclei and identified nuclear atypia which is a common feature of some gliomas (FIG. 4C).

The subject of test [3] is CD20 positive lymphoma cells (MC116). Briefly: SR101 / fixable SR101 staining and CD20 co-labeling in CNS lymphoma xenograft acute slices, confocal stereology. The class given is cell-based, human CNS lymphoma cells implanted in nude rats. The procedure:
as §1, with “Fluorescently labeled sections were mounted on slides with vectashield (Vector labs) and No1.5 coverslips (VWR).” left out
We randomly selected one rostral, midline, and caudal acute slice from each brain containing tumor incubated with fixable SR101. […] Cells within the dissector, and those in contact with its left and bottom edges were counted for either GFAP or CD20 positivity, and for SR101 positivity. The percent overlap between immunostaining and SR101 positivity was calculated. […]
as §2

For a further test, the system named is U251 derived tumor. Kind of test: SR101 staining of acute slices from U251 rodent xenografts, confocal imaging. The class given is cell-based, human astrocytoma cells implanted in nude rats. As to the method: Animals were anesthetized by intramuscular injection of a mixture of 10 mg/kg xylazine and 80 mg/kg ketamine (Wyeth, Madison, N.J.) and placed in a small animal stereotactic headframe (Model 900, David Kopf Instruments, Tujunga, Calif.). A 10-mm incision was made starting between the animal's eyes, exposing bregma. A bur hole was made 3.5 mm lateral to bregma. U251 or MC116 cells were infused at a depth of 4.5 mm below the surface of the brain after the syringe (Hamilton) was advanced 5.0 mm to create a 0.5-mm pocket. The cell suspension was infused using a UMP3-1 UltraMicroPump microinjector (WPI, Sarasota, Fla.) set to a volume of […] with an infusion rate of 3.00 μL/minute. The needle was withdrawn 2 minutes after the injection to minimize backflow of the cell suspension. The bur hole was covered with bone wax and the skin incision was sutured.
Twenty days post-implantation, rats were deeply anesthetized using the xylazine/ketamine mixture as described previously. Animals were rapidly decapitated, brains were removed, and coronal cortical slices (350 μm thick) were cut on a vibratome (Trent's aCSF protocol). Slices were then incubated at room temperature in aCSF containing 5 uM SR101 for 20 minutes followed by a 10 minute wash in aCSF.
as §3, with “Frame size for this system was fixed to 512×512 by a linear charged coupled device (CCD) array.” left out

Test [4] concerns human glioma cell line U251. Kind of test: In vitro SR101 labeling of cultured astrocytoma cells. To be noted: 5 uM SR101, 20 minutes, DIC imaging with fluorescence overlay. Format: cell-based. The procedure:
We acquired human glioma cell line U251 and human CNS lymphoma cell line MC116 from ATCC. Cells were maintained in culture with DMEM media supplemented with 10% FBS, and RPMI media supplemented with 20% FBS respectively (all from Invitrogen, Grand Island, N.Y.). Cells were grown at 37° C. in a humidified incubator under 5% CO2.
We labeled U251 glioma cells by seeding a collagen-coated glass-bottom dish (MatTek) with 100,000 cells. After 24 hours, media was replaced with aCSF containing 5 uM SR101 (Sigma) for 20 minutes, followed by two 5 minute washes with standard aCSF.
as §3, with “Frame size for this system was fixed to 512×512 by a linear charged coupled device (CCD) array.” left out

Test [5] has as its system human glioma cells in a rodent xenograft. Kind of test: In vivo labeling after intra-arterial injection of fixable SR101. To be noted: brains processed two hours post-injection. Set-up: species or system rat. From the text:
Twenty days post-implantion, rats were deeply anesthetized using the previously described ketamin/xylazine mixture. The rats were then intra-arterially injected with Texas red hydrazide. Two hours post-injection brains were perfused, fixed, and sectioned on a cryostat. Sections were mounted on slides and imaged with a Zeiss LSM 710 confocal microscope.

On to `O=S(=O)([O-])c1cc(S(=O)(=O)O)ccc1C1=c2cc3c4c(c2Oc2c1cc1c5c2CCCN5CCC1)CCC[N+]=4CCC3` [SR101, Sulforhodamine 101], for which the “co-localization with GFAP-positive cells in astrocytoma regions” value in test [1] (U251 xenograft acute slices, fixable SR101, stereology) amounted to 79.6%. The “staining of human lymphoma” value in test [2] (human biopsies) is reported as “negative; also recorded: failed to stain”. The “astrocytoma cases selectively stained” value in test [2] (human biopsies versus final diagnosis) was 14 of 15. For the same compound, in test [2] (human biopsies, 5 uM SR101), the “staining of cells from astrocytoma tumor cores” value is reported as “strong cytoplasmic staining” and the “staining of non-astrocytic tumor samples / other CNS neoplasms” value was “did not stain; also recorded: non-specific background staining”. Besides, the “labeling of low grade human oligodendroglioma samples” value in test [2] (human biopsies, samples often GFAP positive) is on record as “does not stain; also recorded: did not label”. Besides, in test [3] (MC116 xenograft acute slices, fixable SR101, stereology), the “co-localization with CD20 positive cells in lymphoma tumor regions” value was found to be 1.97%. Moreover, the “SR101 signal / cells labeled in lymphoma regions” value in test [3] (acute slices from nude rats implanted with human CNS lymphoma cells) is “minimal; also recorded: small number of cells”. The “mean fluorescence intensity (MFI), tumor” value in the test with U251 derived tumor (SR101-labeled tumor core, acute slice, 5 uM SR101 20 minutes) is given as 102.84. In addition, the “mean fluorescence intensity (MFI), background” value in the test on U251 derived tumor (background of SR101-labeled tumor core image, acute slice) is given as 8.74. The “difference in mean fluorescence intensity between U251 cells and reactive astrocytes” value in the test on U251 derived tumor (normalized to background, n=9 optical sections from 3 acute slices) was “no statistically significant difference; also recorded: did not differ”. The “SR101 labeling of cultured U251 astrocytoma cells” value in test [4] is “filled the cytoplasm of the cultured cell and clearly delineated cell nuclei”.
For `NNS(=O)(=O)c1ccc(C2=c3cc4c5c(c3Oc3c2cc2c6c3CCCN6CCC2)CCC[N+]=5CCC4)c(S(=O)(=O)[O-])c1` [fixable SR101, Texas Red Hydrazide], the “in vivo labeling of tumor cells and tumor margin” value in test [5] is on record as “specific in vivo labeling of human glioma cells”. Further, the “cells positive for fixable SR101 in astrocytoma tumor regions” value in test [1] is on record as “majority of cells were positive”; in test [1] (listed as Fixable-SR101), “labeled the majority of cells”.
